Square brackets hold non-standard residues; d marks the D form. Ends that are not written are not given here. Peptide text beside a SMILES is read from it. Hyp = O=C(O)[C@@H]1C[C@@H](O)CN1

The text below walks through data of patent publication US20220275025A1, “BONE REMODELING REGULATORY PEPTIDES AND APPLICATION THEREOF” (THE SECOND XIANGYA HOSPITAL OF CENTRAL SOUTH UNIVERSITY, priority 2019, published 2022).

The target in one data set is T1, mOSCAR (Mus musculus, UniProt Q8VBT3).
T1 construct: The extracellular domains of the mOSCAR were amplified by RT-PCR and inserted with expression vectors of His tag fusion proteins; made in house; host or cells: HEK293T cells
T1 sequence (Q8VBT3 19-231 limits assumed): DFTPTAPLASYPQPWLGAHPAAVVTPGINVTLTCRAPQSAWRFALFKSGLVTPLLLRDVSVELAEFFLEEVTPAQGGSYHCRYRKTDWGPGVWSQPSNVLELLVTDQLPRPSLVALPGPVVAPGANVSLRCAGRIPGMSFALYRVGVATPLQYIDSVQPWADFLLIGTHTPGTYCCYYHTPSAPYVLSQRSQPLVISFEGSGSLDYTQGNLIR
The data set is described as follows: Solid-phase binding experiment of collagen peptides with mOSCAR-His fusion protein. The note with it: peptide coated on 96-well plate, mOSCAR-His 37° C. 3 hours, absorbance at 492 nm. The method, then: 1) The extracellular domains of the mOSCAR were amplified by RT-PCR and inserted with expression vectors of His tag fusion proteins. Then, the constructed vectors were transfected into HEK293T cells for expression, and mOSCAR-His fusion protein were purified by ion-exchange chromatography and molecular sieve chromatography.
2) Collagen peptides were dissolved with 10 mM acetic acid and wrapped to a 96-well microtitration plate overnight. After being sealed in phosphate buffer containing bovine serum albumin at room temperature for 1 hour, mOSCAR-His fusion protein was added and incubated at 37° C. for 3 hours. Then, horseradish peroxidase-labeled goat anti-mouse IgG antibody that capable of reacting specifically with His added and incubated at room temperature for 1 hour. The binding mOSCAR-His fusion protein was detected by O-phenylenediamine dihydrochloride. The reaction was terminated by 3 M H2SO4, and the absorbance at 492 nm was measured. It was confirmed that the type II collagen peptide (OSC^pep) and 4 segments of type I collagen peptides (A1-1, A1-2-1, A1-4-1, A1-5-3) could bind to the mOSCAR (FIG. 5).

Data set [1] has as its system Primary BMMs. Nature of the data set: Cytotoxicity experiment, CCK-8 kit. Format: cell-based, mouse. Conditions: 0, 1, 10, 100, 200, 500, 800, 1000, and 1500 μg/mL, 24 and 48 hours. The method, then: (§1) 1) Bilateral femurs and tibias of wild-type female mice were aseptically isolated, and bone marrow cells were obtained by repeatedly washing bone marrow cavities with culture medium. After culturing in α-MEM complete medium containing M-CSF (30 ng/mL) for 24-hour, nonadherent cells were suctioned, centrifuged, and resuspended, and then cultured in the α-MEM complete medium containing M-CSF (30 ng/mL) for 3 days to obtain adherent mouse primary bone marrow mononuclear macrophages (osteoclast precursor cells). Osteoclast precursor cells were conducted by M-CSF (50 ng/mL) and RANKL (100 ng/mL) to obtain osteoclast and identified by TRAP staining (FIG. 1A). The expression of the collagen receptor OSCAR on osteoclast precursor cells and osteoclasts were determined by immunofluorescence (FIG. 1B) and Western blot (FIG. 1C).
1) Primary BMMs were cultured in vitro according to the method in Part 1 above, the A1-1/A1-4-1 collagen peptide was taken as an example for carrying out the cytotoxicity experiment. Primary BMMs were treated with different concentrations (0, 1, 10, 100, 200, 500, 800, 1000, and 1500 μg/mL) of collagen peptide for 24 and 48 hours, and the cytotoxicity was determined by CCK-8 kit.

The next data set relates to osteoclasts. The data set is described as follows: Bone resorption of osteoclasts in peptide-primary BMMs-bone slice culture system, WGA staining. Format: cell-based, mouse. An excerpt: 3) Different concentrations of bone remodeling regulatory peptides-primary BMMs-bone slice culture system was constructed by using the above-mentioned method, and the cells in the system were induced to differentiate into osteoclasts by M-CSF and RANKL at the same time. The effect of collagen peptides on bone resorption of osteoclasts was verified by wheat germ agglutinin (WGA) staining. It was confirmed that all of the bone remodeling regulatory peptides could promote bone resorption of osteoclasts at low concentration and inhibit bone resorption of osteoclasts at high concentration (FIG. 6B).

The test system of a further data set is Primary pre-osteoblasts. The data set is described as follows: Osteoblast differentiation, ALP staining. Format: cell-based, mouse. As to the method:
2) After skulls of the wild-type mice were aseptically isolated, cells were isolated by collagenase digestion and nucleated cells were obtained by density gradient centrifugation. Cells were induced to differentiate into osteoblasts by medium containing 10 mM β-sodium glycerophosphate, 50 μM vitamin C and 10^−7 M dexamethasone and identified by ALP staining (FIG. 1D). The expression of the collagen receptor OSCAR on pre-osteoblasts induced for 0th, 7th, 14th, 21st, and 35th day and MLO-Y4 bone cell lines was determined by immunohistochemistry (FIG. 1E) and Western blot (FIG. 1F).
4) Primary pre-osteoblasts were cultured in vitro according to the method in Part 1 above. Then, cells were treated with different concentrations of 5 segments of collagen peptides, and induced to differentiate into osteoblast by 10 mM […], 50 μM vitamin C and 10^−7 M dexamethasone at the same time. The effect of the collagen peptides on osteoblast differentiation was verified by ALP staining. It was confirmed that the bone remodeling regulatory peptides could inhibit osteoblast differentiation and bone formation at low concentration and promote osteoblast differentiation and bone formation at high concentration (FIG. 6C). […]

For data set [2], the system named is Primary BMMs. The data set is described as follows: Osteoclast differentiation induced by M-CSF and RANKL, TRAP staining. Format: cell-based, mouse. As to the method:
as §1
2) Primary BMMs were treated with different concentrations of 5 collagen peptides, and induced to differentiate into osteoclasts by M-CSF and RANKL. The effect of different concentrations of collagen peptides on osteoclast differentiation was verified by TRAP staining. It was confirmed that all of the bone remodeling regulatory peptides could promote osteoclast differentiation at low concentration and inhibit osteoclast differentiation at high concentration (FIG. 6A).

For `C[C@H](NC(=O)CN)C(=O)N1C[C@H](O)C[C@H]1C(=O)NCC(=O)N1CCC[C@H]1C(=O)N[C@@H](CCC(N)=O)C(=O)NCC(=O)N[C@@H](Cc1ccccc1)C(=O)N[C@@H](CCC(N)=O)C(=O)O` [A1-1, Gly-Ala-Pro-Gly-Pro-Gln-Gly-Phe-Gln] (H-GA[Hyp]GPQGFQ-OH), at mOSCAR, the “binding to the mOSCAR” value is on record as “could bind”. For the same molecule, in the data set with Primary BMMs [1], the cytotoxicity result is reported as “no toxic effect”.

Consider `C[C@H](NC(=O)[C@H](Cc1ccccc1)NC(=O)CNC(=O)[C@H](C)NC(=O)[C@@H]1CCCN1C(=O)CNC(=O)[C@@H]1C[C@@H](O)CN1C(=O)[C@@H]1CCCN1C(=O)CN)C(=O)O` [A1-4-1, Gly-Pro-Pro-Gly-Pro-Ala-Gly-Phe-Ala] (H-GP[Hyp]GPAGFA-OH), for which the “binding to the mOSCAR” value on mOSCAR is “could bind”. Also, the cytotoxicity entry in the data set on Primary BMMs [1] is given as “no toxic effect”.

For the molecule “Gly-Ala-Pro-Gly-Ala-Pro-Gly-Ser-Gln (GA[Hyp]GA[Hyp]GSQ) [A1-2-1]”, in the data set with mOSCAR, the “binding to the mOSCAR” value is listed as “could bind”.

“Gly-Ala-Pro-Gly-Pro-Ala-Gly-Phe-Ala (GA[Hyp]GPAGFA) [OSC^pep]”: the “concentration that inhibits bone resorption” value with osteoclasts (high concentration) is at least 8000 µg/mL. Besides, the “concentration that promotes bone resorption” value with osteoclasts (low concentration) was under 8000 µg/mL. In the data set with Primary pre-osteoblasts, the “concentration that inhibits osteoblast differentiation and bone formation” value was under 8000 µg/mL; the “concentration that promotes osteoblast differentiation and bone formation” value was at least 8000 µg/mL. Moreover, the “binding to the mOSCAR” value with mOSCAR is recorded as “could bind”. In the data set on Primary BMMs [2] (high concentration), the “concentration that inhibits osteoclast differentiation” value is at least 8000 µg/mL. For the same molecule, the “concentration that promotes osteoclast differentiation” value in the data set with Primary BMMs [2] (low concentration) was under 8000 µg/mL.

“Gly-Pro-Pro-Gly-Ala-Thr-Gly-Phe-Pro (GP[Hyp]GATGFP) [A1-5-3]”: the “binding to the mOSCAR” value in the data set with mOSCAR was “could bind”.
